Data from PMC11035632, “Discovery of gefitinib-1,2,3-triazole derivatives against lung cancer via inducing apoptosis and inhibiting the colony formation” (Scientific Reports, 2024).

Key:
H1299 cells [1] = assay: Flow cytometry detection of apoptosis (Annexin V-EGFP/PI); type: cell-based, human; conditions: 48 h
Experimental: H1299 cells were treated with different concentrations of 7a and 7j for 48 h. The cells were stained with Annexin-V and PI, and the proportion of apoptotic cells was detected using flow cytometry.
H1299 cells were seeded in a 6-well plate at a density of 1 × 10^5 cells/well and incubated for 24 h. On the following day, the medium was replaced with fresh medium containing 7a or 7j (2, 4 and 8 μmol/L) and cells were incubated for an additional 48 h. Cell apoptosis was detected using Annexin V-EGFP/PI apoptosis detection Kit by flow cytometry. Subsequently, 5 µl of […] Annexin V and 10 µl of PI was added to the cell suspension, gently vortexed, and incubated at room temperature in the dark for 20 min, then single-cell suspension was prepared followed by flow cytometry (BD Accuri™ C6 Plus).

L02 cells = assay: Cytotoxicity / survival rate in normal hepatocytes L02; type: cell-based; conditions: for Survival rate %, 48 h: L02 cells
H1299 cells [2] = assay: Transwell migration assay; type: cell-based, human; conditions: H1299, 2, 4 and 8 μmol/L, 24 h, vs normal control, p < 0.01
Experimental: Transwell chamber migration assay is another important method to assess cell migration ability. Tumor cells are seeded in the chamber, and the number of tumor cells that pass through the membrane is counted to evaluate the migration ability of tumor cells.
Transwell assay was used to determine the migration ability of H1299 cells. Cells were starved in serum-free RPMI 1640 medium for 24 h, then detached and resuspended in serum-free RPMI 1640 medium. 5 × 10^5 cells/mL were inoculated into the upper chamber of a 24-well Transwell plate (Corning Inc., United States), with a volume of 100 µl per well. Then, 100 µL serum-free medium containing 7a or 7j (2, 4 and 8 μmol/L) was added to the upper chamber and the lower chamber was filled with 700 µL medium containing 20% FBS. After incubation for 24 h, H1299 cells on the upper membrane of the transwell were wiped off. The migrated cells were treated with 4% paraformaldehyde for 20 min, stained with 0.1% crystal violet for 20 min and washed three times with PBS. The number of H1299 cells that migrated to the underside of the membrane was counted under the inverted fluorescence microscope. Three randomly selected areas from each transwell were photographed and calculated using Image J.

COc1cc2ncnc(Nc3cccc(-c4cn(Cc5cc(F)ccc5Br)nn4)c3)c2cc1OCCCN1CCOCC1 [Compound 7a]
total apoptotic cell proportion (H1299 cells [1]; H1299, 2 μmol/L): 19.03 ± 2.10%
total apoptotic cell proportion (H1299 cells [1]; H1299, 4 μmol/L): 28.73 ± 1.12%
total apoptotic cell proportion (H1299 cells [1]; H1299, 8 μmol/L): 50.1 ± 2.91%
IC50 (L02 cells; Homo sapiens, normal hepatocytes L02): 18.9 ± 1.03 µM
Survival rate %, 48 h (L02 cells; 2 μM): 95.37 ± 2.98%
Survival rate %, 48 h (L02 cells; 4 μM): 71.97 ± 2.33%
Survival rate %, 48 h (L02 cells; 8 μM): 66.89 ± 1.52%
Survival rate %, 48 h (L02 cells; 16 μM): 63.25 ± 1.25%
Survival rate %, 48 h (L02 cells; 32 μM): 32.43 ± 0.95%
number of cells passing through the membrane to the lower surface of the chamber (H1299 cells [2]): significantly decreased
